Values of other authors, collected in US12037433B2, “(Co)polymers of hydrophobic monomers and methods of making and use thereof” (BASF SE, priority 2018, dated 2024).

What was measured:
[1] = for solubility in water, measured at 20° C.: additional hydrophobic monomers

C=C(C)C(=O)OC1CCCCC1 [Cyclohexyl methacrylate (CHMA), Cyclohexyl methacrylate]
Water Solubility at 20° C. [1]: 100 µg/mL
Partitioning Coefficient n-octanol/water [log Kow at 25° C.]: 3.54

C=CC(=O)OCCCCCCCCCCCCCCCCC [Heptadecyl acrylate (C17 A), Heptadecyl acrylate]
Water Solubility at 20° C. [1]: 40 µg/mL
Partitioning Coefficient n-octanol/water [log Kow at 25° C.]: 9.2

C=C(C)C(=O)OCCCCCCCCCCCCCCCCC [Heptadecyl methacrylate (C17 MA), Heptadecyl methacrylate]
Water Solubility at 20° C. [1]: 50 µg/mL
Partitioning Coefficient n-octanol/water [log Kow at 25° C.]: 6.5

C=CC(=O)OCCCCCCCCCCCC [Lauryl Acrylate (LA), Lauryl Acrylate]
Water Solubility at 20° C. [1]: 40 µg/mL
Partitioning Coefficient n-octanol/water [log Kow at 25° C.]: 6.13

C=C(C)C(=O)OCCCCCCCCCCCC [Lauryl Methacrylate (LMA), Lauryl Methacrylate]
Water Solubility at 20° C. [1]: 30 µg/mL
Partitioning Coefficient n-octanol/water [log Kow at 25° C.]: 6.45

C=CC(=O)OCCCCCCCCCCCCCCCCCC [Stearyl Acrylate (SA), Stearyl Acrylate]
Partitioning Coefficient n-octanol/water [log Kow at 25° C.]: 9.28

C=C(C)C(=O)OCCCCCCCCCCCCCCCCCC [Stearyl Methacrylate (SMA), Stearyl Methacrylate]
Partitioning Coefficient n-octanol/water [log Kow at 25° C.]: 9.62

C=CC=C [butadiene]
solubility in water, measured at 20° C. [1]: 0.08 g/100 g water

C=Cc1ccccc1 [styrene]
solubility in water, measured at 20° C. [1]: 0.03 g/100 g water

C=COC(=O)C(C)(C)C [vinyl neo-pentanoate]
solubility in water, measured at 20° C. [1]: 0.08 g/100 g water
